From US4186184A, “Selective administration of drug with ocular therapeutic system” (priority 1979, dated 1980)

Experiments:
[1] = in vivo
Procedure: Ocular dispensing system of elliptical shape for administering a drug to the tissue compartments of the eye over a prolonged period of time and having a length of 4 to 20 millimeters, a width of 1 to 15 millimeters and a thickness of 0.1 to 4 millimeters are prepared by mixing liquid polydimethylsiloxane, chloramphenicol and stannous octate and curing the mixture at room temperature. The resulting matrix is placed in a pre-shaped and sized ethylene-vinyl acetate copolymer tube and the opened end adhesively sealed to provide a solid matrix containing drug. Then, 90% of the exposed surface of the copolymer is surrounded with cross-linked drug impermeable polyamide.

[2] = Drug release rate through system membranes (Example 8); assay type: physicochemical; conditions: area 1 cm^2, membranes 2 mils thick
Procedure: Following the procedure set forth in Example 1, an ocular drug delivery system shaped like a circle 6 mm by 2.5 mm is prepared according to the described procedure except one of the membrane is formed from commercially available laminate of cellulose acetate and nylon-66 that is substantially impermeable to the passage of hydrocortisone alcohol in the reservoir of the system. The area of the system is 1 cm^2, and the membranes are 2 mils thick. The drug release rate for the ethylene-vinyl acetate copolymer film which is permeable to the steroid is about 40 micrograms per hour, and the release rate for the laminate cellulose acetate nylon is about 1 to 2 micrograms per hour.

[3] = cited from earlier work
[4] = Release of drug from osmotic ocular therapeutic system in simulated ocular aqueous environment (UV, 215 nm); assay type: physicochemical
Procedure: A drug delivery system for the prolonged release of pilocarpine nitrate to the internal part of the eye is prepared and tested in the following manner: first, a reservoir formed of a drug and a polymer in intimate mixture is prepared according to the described procedure. A 7 gram portion of micronized pilocarpine nitrate is admixed with 3 grams of an ethylene-vinyl acetate copolymer having a vinyl acetate content of about 40% and having a melt index of […], as measured by ASTM D 1238-modified test. The copolymer has a tensile strength of about 600-700 psi and an elongation at break of 1400% to 1500%. It is impermeable to pilocarpine nitrate but permeable to water. […] The pilocarpine nitrate micronized particles are on average ~40 microns in diameter. The mixture is heated to 120° C. and cast as a 0.6 mm thick film. Next, a thin, water and drug impermeable thin film of butyl rubber is laminated to one side of the film thereby forming a system with a single drug portal. Finally, a number of 6 mm discs, suitable in size for insertion and retention in the eye, are cut from the 0.6 mm thick film. These discs have a portal with a surface area of […]. Osmotic bursting devices are the invention of Michaels and Gulloid as described in United States Patent Application Ser. No. 578,979 filed on May 19, 1975.
The release of drug from the ocular therapeutic system is determined by placing the systems in a simulated ocular aqueous environment. The outermost drug depots imbibs water through the sole exposed surface, swell, and burst their enclosing membranes, releasing their drug from the reservoir and exposing innermost depots. The amount of drug released in this rate controlled osmotic system is monitored by a UV spectrometer set at 215 nanometer wavelength. A relatively rapid release of pilocarpine nitrate begins to be noticed. The release continues for about 22 hours at a rate gradually decreasing from an initial 400 micrograms per hour to about 250 micrograms per hour after 22 hours. After 22 hours, the release rate falls rapidly.

[5] = rabbit, in vivo
[6] = design: species or system New Zealand white rabbits; conditions: rabbit, in vivo
Procedure: After the ocular systems were in the cul-de-sac 24 hours, they were removed, and a tear sample collected for measuring its pilocarpine content. Then, the systems were returned to the cul-de-sac for one-half hour, the rabbits sacrificed, and an aqueous humor sample immediately withdrawn for measuring the pilocarpine content thereof.
The sutures thus placed, restricted the movement of the ocular systems so that lateral and vertical movement of the ocular systems could not exceed a distance of more than 2 mm. Tear samples were collected and processed in the same way as were tear samples from ocular systems releasing 20 and 40 micrograms per hour.
A second set of ocular systems were used in these experiments and they were manufactured with a size and shape that corresponded to the above ocular systems, except that these latter systems were unireleasing ocular systems. That is, the ocular systems released pilocarpine from a single portal. […] These systems were positioned in the cul-de-sac, with the portal oriented towards the sclera, and tears and aqueous humor samples were taken and analyzed for their pilocarpine content as described above. […]
Selection of an ocular drug receptor site for administering a drug thereto can be easily ascertained by following the above procedures. […] For example, the physiological effect can be determined by measuring ocular pressure and increased vision. […]

[7] = Example 16, single portal osmotic system

O=C(N[C@H](CO)[C@H](O)c1ccc([N+](=O)[O-])cc1)C(Cl)Cl [chloramphenicol]
Discomfort or irritation in the eye [1]: no discomfort or irritation

C[C@]12CCC(=O)C=C1CC[C@@H]1[C@@H]2[C@@H](O)C[C@@]2(C)[C@H]1CC[C@]2(O)C(=O)CO [hydrocortisone alcohol]
Drug release rate for the ethylene-vinyl acetate copolymer film [2]: about 40 micrograms per hour

CC[C@@H]1C(=O)OC[C@@H]1Cc1cncn1C [pilocarpine nitrate]
Solubility in water [3]: about 25%
Duration of release ([4]; Example 16, release rate falls rapidly thereafter): about 22 hours
Release rate after 22 hours [4, 7]: about 250 micrograms per hour
Release rate, initial [4, 7]: 400 micrograms per hour
Aqueous concentrations of osmotic system compared with diffusional systems [5]: substantially similar

CC[C@@H]1C(=O)OC[C@@H]1Cc1cncn1C [pilocarpine]
Aqueous humor pilocarpine concentration increase per 5 μg/hr increase in rate of release per portal [5]: 0.4 μg/ml per 5 μg/hr
Mean aqueous humor pilocarpine concentration with palpebral delivery relative to bulbar delivery [5]: 11%
Absorption and transfer into aqueous humor from bulbar side relative to palpebral side [6]: at least 10 times
